Measurements reported in PubChem BioAssay (NCI).
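Dose response: 5 concentrations. Exposure: 48 h. Format: 96-well plates. Endpoint: linear interpolation; highest concentration if not reached. TGI: total growth inhibition.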

Assays:
Test in all cases: growth of human tumour cells (NCI), 48 h
COLO 205 colon = system: COLO 205 colon
SR leukemia = system: SR leukemia
HCT-116 colon = system: HCT-116 colon
ACHN renal = system: ACHN renal
NCI-H23 lung = system: NCI-H23 lung
T-47D breast = system: T-47D breast
RPMI-8226 leukemia = system: RPMI-8226 leukemia
786-0 renal = system: 786-0 renal
U251 CNS = system: U251 CNS
BT-549 breast = system: BT-549 breast
SNB-75 CNS = system: SNB-75 CNS
SF-539 CNS = system: SF-539 CNS
NCI-H226 lung = system: NCI-H226 lung
SF-268 CNS = system: SF-268 CNS
SK-MEL-2 melanoma = system: SK-MEL-2 melanoma
OVCAR-5 ovarian = system: OVCAR-5 ovarian
EKVX NSCLC = system: EKVX NSCLC
HOP-62 NSCLC = system: HOP-62 NSCLC
OVCAR-4 ovarian = system: OVCAR-4 ovarian
HT29 colon = system: HT29 colon
MDA-N = system: MDA-N
K-562 leukemia = system: K-562 leukemia
CCRF-CEM leukemia = system: CCRF-CEM leukemia
NCI-H460 lung = system: NCI-H460 lung
SF-295 CNS = system: SF-295 CNS
HCT-15 colon = system: HCT-15 colon
KM12 colon = system: KM12 colon
UACC-62 melanoma = system: UACC-62 melanoma
MCF7 breast = system: MCF7 breast
PC-3 prostate = system: PC-3 prostate
MOLT-4 leukemia = system: MOLT-4 leukemia
MALME-3M melanoma = system: MALME-3M melanoma
OVCAR-8 ovarian = system: OVCAR-8 ovarian
HS 578T breast = system: HS 578T breast
NCI/ADR-RES ovarian = system: NCI/ADR-RES ovarian
RXF 393 renal = system: RXF 393 renal
MDA-MB-231 breast = system: MDA-MB-231 breast
IGROV1 ovarian = system: IGROV1 ovarian
UACC-257 melanoma = system: UACC-257 melanoma
HCC-2998 colon = system: HCC-2998 colon
SW-620 colon = system: SW-620 colon
DU-145 prostate = system: DU-145 prostate
TK-10 renal = system: TK-10 renal
SK-MEL-5 melanoma = system: SK-MEL-5 melanoma
SNB-19 CNS = system: SNB-19 CNS
OVCAR-3 ovarian = system: OVCAR-3 ovarian
MDA-MB-435 = system: MDA-MB-435
A498 renal = system: A498 renal
CAKI-1 renal = system: CAKI-1 renal
M14 melanoma = system: M14 melanoma
NCI-H522 lung = system: NCI-H522 lung
SN12C renal = system: SN12C renal
SK-MEL-28 melanoma = system: SK-MEL-28 melanoma
SK-OV-3 ovarian = system: SK-OV-3 ovarian
A549 NSCLC = system: A549 NSCLC
HOP-92 NSCLC = system: HOP-92 NSCLC
LOX IMVI melanoma = system: LOX IMVI melanoma
UO-31 renal = system: UO-31 renal

CCOC(=O)/C(=C\c1ccnc2ccccc12)P(=O)(OCC)OCC
TGI (COLO 205 colon): 4.63 µM | TGI (SR leukemia): 5.38 µM | TGI (HCT-116 colon): 3.61 µM | TGI (ACHN renal): 4.82 µM | TGI (NCI-H23 lung): 4.22 µM | TGI (T-47D breast): 9.11 µM | TGI (RPMI-8226 leukemia): 5.93 µM | TGI (786-0 renal): 6.14 µM | TGI (U251 CNS): 9.51 µM | TGI (BT-549 breast): 4.22 µM | TGI (SNB-75 CNS): 12 µM | TGI (SF-539 CNS): 3.32 µM | TGI (NCI-H226 lung): 31.3 µM | TGI (SF-268 CNS): 6.3 µM | TGI (SK-MEL-2 melanoma): 4.49 µM | TGI (OVCAR-5 ovarian): 6.78 µM | TGI (EKVX NSCLC): 15.1 µM | TGI (HOP-62 NSCLC): 5.91 µM | TGI (OVCAR-4 ovarian): 6.61 µM | TGI (HT29 colon): 4.62 µM | TGI (MDA-N): 6.74 µM | TGI (K-562 leukemia): 9.96 µM | TGI (CCRF-CEM leukemia): 1.96 µM | TGI (NCI-H460 lung): 8.72 µM | TGI (SF-295 CNS): 10.5 µM | TGI (HCT-15 colon): 3.3 µM | TGI (KM12 colon): 13.9 µM | TGI (UACC-62 melanoma): 10.4 µM | TGI (MCF7 breast): 14.7 µM | TGI (PC-3 prostate): 16.8 µM | TGI (MOLT-4 leukemia): > 100 µM | TGI (MALME-3M melanoma): 3.71 µM | TGI (OVCAR-8 ovarian): 7.96 µM | TGI (HS 578T breast): 8.63 µM | TGI (NCI/ADR-RES ovarian): 5.9 µM | TGI (RXF 393 renal): 4.41 µM | TGI (MDA-MB-231 breast): 8.84 µM | TGI (IGROV1 ovarian): 4.33 µM | TGI (UACC-257 melanoma): 14 µM | TGI (HCC-2998 colon): 26.7 µM | TGI (SW-620 colon): 5.27 µM | TGI (DU-145 prostate): 7.52 µM | TGI (TK-10 renal): 14 µM | TGI (SK-MEL-5 melanoma): 10.7 µM | TGI (SNB-19 CNS): 15.3 µM | TGI (OVCAR-3 ovarian): 4.52 µM | TGI (MDA-MB-435): 9.95 µM | TGI (A498 renal): 5.98 µM | TGI (CAKI-1 renal): 7.66 µM | TGI (M14 melanoma): 5.02 µM | TGI (NCI-H522 lung): 3.18 µM | TGI (SN12C renal): 9.19 µM | TGI (SK-MEL-28 melanoma): 3.35 µM | TGI (SK-OV-3 ovarian): 15.5 µM | TGI (A549 NSCLC): 14.7 µM | TGI (HOP-92 NSCLC): 6.93 µM | TGI (LOX IMVI melanoma): 3.43 µM

OC12CC3c4ccccc4NC3C3Oc4cccc5c4C31CCN(CC1CC1)C2C5 (centres undefined)
TGI (COLO 205 colon): 39.7 µM | TGI (SR leukemia): 59 µM | TGI (HCT-116 colon): 33.5 µM | TGI (ACHN renal): 34.5 µM | TGI (NCI-H23 lung): 30.6 µM | TGI (T-47D breast): 42.6 µM | TGI (RPMI-8226 leukemia): 48.2 µM | TGI (786-0 renal): 32.2 µM | TGI (U251 CNS): 31.1 µM | TGI (BT-549 breast): 34.7 µM | TGI (SNB-75 CNS): 31.5 µM | TGI (SF-539 CNS): 90.5 µM | TGI (UO-31 renal): 30.4 µM | TGI (NCI-H226 lung): 74.9 µM | TGI (SF-268 CNS): 41.1 µM | TGI (SK-MEL-2 melanoma): 35 µM | TGI (OVCAR-5 ovarian): 46.3 µM | TGI (EKVX NSCLC): 87.7 µM | TGI (HOP-62 NSCLC): 32.8 µM | TGI (OVCAR-4 ovarian): 55.5 µM | TGI (HT29 colon): 34.2 µM | TGI (MDA-N): 35.1 µM | TGI (K-562 leukemia): 52.6 µM | TGI (CCRF-CEM leukemia): 71 µM | TGI (NCI-H460 lung): 32.4 µM | TGI (SF-295 CNS): 94.1 µM | TGI (HCT-15 colon): 35.1 µM | TGI (KM12 colon): 37.3 µM | TGI (UACC-62 melanoma): 33.3 µM | TGI (MCF7 breast): 32.8 µM | TGI (PC-3 prostate): 32.1 µM | TGI (MOLT-4 leukemia): 73.1 µM | TGI (MALME-3M melanoma): 34.9 µM | TGI (OVCAR-8 ovarian): 32.3 µM | TGI (HS 578T breast): 46.3 µM | TGI (NCI/ADR-RES ovarian): 47.4 µM | TGI (RXF 393 renal): 27.7 µM | TGI (MDA-MB-231 breast): 32.4 µM | TGI (IGROV1 ovarian): 29.8 µM | TGI (UACC-257 melanoma): 32.4 µM | TGI (SW-620 colon): 39.1 µM | TGI (DU-145 prostate): 36.5 µM | TGI (TK-10 renal): 31.1 µM | TGI (SK-MEL-5 melanoma): 31.5 µM | TGI (SNB-19 CNS): 36.8 µM | TGI (OVCAR-3 ovarian): 30.7 µM | TGI (MDA-MB-435): 32.3 µM | TGI (A498 renal): 32.2 µM | TGI (CAKI-1 renal): 32.4 µM | TGI (M14 melanoma): 33.8 µM | TGI (NCI-H522 lung): 39.7 µM | TGI (SN12C renal): 34.4 µM | TGI (SK-MEL-28 melanoma): 28.6 µM | TGI (SK-OV-3 ovarian): 34.6 µM | TGI (A549 NSCLC): 38.3 µM | TGI (HOP-92 NSCLC): 24.5 µM | TGI (LOX IMVI melanoma): 30 µM
